Laboratory results from US4175081A, “5-Substituted thiadiazole ureas” (priority 1977, dated 1979).

Experiments:
Corn (CN) = assay: Post-emergence herbicide test; assay type: in vivo; details: Zea mays, 336 h, two weeks after treatment
How it was run: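 Greenhouse seedlings grown in potting soil and sprayed post-emergence at 8 lbs compound/acre (formulations also made for 4 lbs/acre) in 38 gallons/acre spray volume. Watering by sub-irrigation only. Injury or control rated visually two weeks after treatment.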

Johnson grass (JG) [1] = assay: Post-emergence herbicide test; assay type: in vivo, Sorgum helepense; details: Sorghum halepense, 336 h, two weeks after treatment
How it was run: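 Greenhouse pot-grown seedlings sprayed post-emergence at 8 lbs compound per acre (some at 4 lbs/acre) in 38 gallons per acre spray volume. Sub-irrigated thereafter. Injury/control rated visually two weeks after treatment.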

Bean (BN) [2] = assay: Post-emergence herbicide test; assay type: in vivo, Phaseolus vulgaris var. Black Valentine; details: Phaseolus vulgaris, post-emergence, 336 h, two weeks after treatment
How it was run: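 Snapbean (Phaseolus vulgaris var. Black Valentine) was tested post-emergence. Four seeds were sown in 3' plastic pots of potting soil at a depth equal to the seed diameter, then sub-irrigated in greenhouse trays. Planting dates were staggered so plants were sprayed once primary leaves had expanded, with the growing point at the primary leaf nodes.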

Bean (BN) [3] = assay: Pre-emergence herbicide test; assay type: in vivo, Phaseolus vulgaris var. Black Valentine; details: Phaseolus vulgaris, 336 h, two weeks after treatment
How it was run: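 Black Valentine bean was seeded in potting soil one day before spraying. Compound was applied pre-emergence at 8 lbs/acre (also 4 lbs/acre) in 38 gallons per acre. Plants were sub-irrigated and injury or control was rated visually after two weeks.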

[4] = tested on: Yellow foxtail grass (YF); assay: Pre-emergence herbicide test; assay type: in vivo, Setaria glauca; details: Setaria, 336 h, two weeks after treatment
How it was run: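 Seeds surface-sown in potting soil one day before spraying; compounds applied pre-emergence at 8 or 4 lbs/acre in 38 gallons/acre spray. Pots held in greenhouse with sub-irrigation only. Injury or control rated visually two weeks after treatment.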

Johnson grass (JG) [5] = assay: Pre-emergence herbicide test; assay type: in vivo, Sorgum helepense; details: Sorghum halepense, 336 h, two weeks after treatment
How it was run: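 Pots seeded one day before spraying; compound applied pre-emergence at 8 lbs/acre (or 4 lbs/acre) in 38 gallons/acre spray volume. Sub-irrigated in greenhouse; injury/control rated visually two weeks after treatment.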

**Q.** What does the source list for `CNC(=O)Nc1nnc(C(F)(F)F)s1` [Example 1, 1-Methyl-3-[5-Trifluoromethyl-2-(1,3,4-Thiadiazolyl)] Urea]?
**A.** pest or weed control (Corn (CN); 2 lb/acre): 70%; pest or weed control at 4483.4 g/ha (Corn (CN); 4 lb/acre): 100%; pest or weed control at 8966.8 g/ha (Corn (CN); 8 lb/acre): 100%; pest or weed control (Johnson grass (JG) [1]; 2 lb/acre): 90%; pest or weed control at 4483.4 g/ha (Johnson grass (JG) [1]; 4 lb/acre): 90%; pest or weed control at 8966.8 g/ha (Johnson grass (JG) [1]; 8 lb/acre): 100%; pest or weed control at 2241.7 g/ha (Bean (BN) [2]; 2 lb/acre): 100%; pest or weed control at 4483.4 g/ha (Bean (BN) [2]; 4 lb/acre): 100%; pest or weed control at 8966.8 g/ha (Bean (BN) [2]; 8 lb/acre): 100%; pest or weed control at 4483.4 g/ha (Bean (BN) [3]; 4 lb/acre): 90%; pest or weed control at 8966.8 g/ha (Bean (BN) [3]; 8 lb/acre): 90%; pest or weed control at 4483.4 g/ha ([4]; 4 lb/acre): 80%; pest or weed control at 8966.8 g/ha ([4]; 8 lb/acre): 90%; pest or weed control at 4483.4 g/ha (Johnson grass (JG) [5]; 4 lb/acre): 80%; pest or weed control at 8966.8 g/ha (Johnson grass (JG) [5]; 8 lb/acre): 70%
